Source: ChEMBL document CHEMBL1201862, “PubChem BioAssay data set” (2004)
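All cell lines were grown in 96-well plates and treated with compound for 48 hours. GI50 marks 50% less growth.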 Activity calls are given as the source filed them. Rule as the data show it: active = GI50 up to about 1.1 µM and inactive = higher.

Experiments:
Test in all cases: NCI anticancer screen, dose series, 48 h
LOX IMVI = test system: LOX IMVI
HCT-116 = test system: HCT-116
A549 = test system: A549
OVCAR-3 = test system: OVCAR-3
SK-OV-3 = test system: SK-OV-3
TK-10 = test system: TK-10
OVCAR-5 = test system: OVCAR-5
LXFL 529 = test system: LXFL 529
CAKI-1 = test system: CAKI-1
SF-295 = test system: SF-295
SK-MEL-28 = test system: SK-MEL-28
SW-620 = test system: SW-620
DMS-114 = test system: DMS-114
OVCAR-4 = test system: OVCAR-4
SF-539 = test system: SF-539
K562 = test system: K562

Row | Structure (SMILES) | GI50 (LOX IMVI) | GI50 (HCT-116) | GI50 (A549) | GI50 (OVCAR-3) | GI50 (SK-OV-3) | GI50 (TK-10) | GI50 (OVCAR-5) | GI50 (LXFL 529) | GI50 (CAKI-1) | GI50 (SF-295) | GI50 (SK-MEL-28) | GI50 (SW-620) | GI50 (DMS-114) | GI50 (OVCAR-4) | GI50 (SF-539) | GI50 (K562)
1 | O=C(Nc1c(O)[nH]c(=S)[nH]c1=O)c1ccccn1 | > 100 µM (inactive) | > 100 µM (inactive) | > 100 µM (inactive) | > 100 µM (inactive) | > 100 µM (inactive) | > 100 µM (inactive) | > 100 µM (inactive) | > 100 µM (inactive) | > 100 µM (inactive) | > 100 µM (inactive) | > 100 µM (inactive) | > 100 µM (inactive) | > 100 µM (inactive) | > 100 µM (inactive) | > 100 µM (inactive) | > 100 µM (inactive)
2 | COc1nc(NC2OC(COC(C)=O)C(OC(C)=O)C(OC(C)=O)C2OC(C)=O)c(/N=C(\C)C(C)=O)c(=O)n1C (stereo not given) | > 100 µM (inactive) | > 100 µM (inactive) | > 100 µM (inactive) | > 100 µM (inactive) | > 100 µM (inactive) | > 100 µM (inactive) | > 100 µM (inactive) | > 100 µM (inactive) | > 100 µM (inactive) | > 100 µM (inactive) |  | > 100 µM (inactive) | > 100 µM (inactive) | > 100 µM (inactive) | > 100 µM (inactive) | > 100 µM (inactive)
3 | O=C1CCC2(c3ccc(Cl)cc3)Nc3ncccc3N12 (stereo not given) | > 100 µM (inactive) |  | > 100 µM (inactive) | > 100 µM (inactive) | > 100 µM (inactive) | > 100 µM (inactive) | > 100 µM (inactive) | > 100 µM (inactive) | > 100 µM (inactive) | > 100 µM (inactive) | > 100 µM (inactive) | > 100 µM (inactive) | > 100 µM (inactive) | > 100 µM (inactive) | > 100 µM (inactive) | > 100 µM (inactive)
4 | CC(C)(c1cn(Cc2ccccc2)c2ccccc12)c1cn(Cc2ccccc2)c2ccccc12 | > 100 µM (inactive) | > 100 µM (inactive) | > 100 µM (inactive) | > 100 µM (inactive) | > 100 µM (inactive) |  | > 100 µM (inactive) | > 100 µM (inactive) | > 100 µM (inactive) | > 100 µM (inactive) |  | > 100 µM (inactive) | > 100 µM (inactive) | > 100 µM (inactive) | > 100 µM (inactive) | > 100 µM (inactive)
5 | N#COc1ccc(Oc2ccccc2)cc1 | 23.1 µM (inactive) | 61.7 µM (inactive) | 73.3 µM (inactive) | > 100 µM (inactive) | > 100 µM (inactive) | > 100 µM (inactive) | > 100 µM (inactive) | > 100 µM (inactive) | 77.6 µM (inactive) | 59.8 µM (inactive) | > 100 µM (inactive) |  | 31.1 µM (inactive) | > 100 µM (inactive) | 26.8 µM (inactive) | 48.4 µM (inactive)
6 | CC(C)(C)c1cc2nc(c1)C(C(F)(F)F)(C(F)(F)F)OB(Br)OC2(C(F)(F)F)C(F)(F)F | 0.0378 µM (active) |  | < 0.01 µM (active) | < 0.01 µM (active) | 1.3 µM (inactive) | 0.0802 µM (active) | 0.0532 µM (active) | 0.261 µM (active) | 0.0414 µM (active) | 0.0834 µM (active) | 4.8 µM (inactive) | < 0.01 µM (active) | < 0.01 µM (active) | < 0.01 µM (active) | 0.316 µM (active) | 0.0434 µM (active)
7 | CC1CCC2CC(=O)OC([C@@H]3C(=O)O[C@@H](C4=CCCC4)C4C(C)CCC43)C12 (stereo not given in full) | > 100 µM (inactive) | 43.9 µM (inactive) | > 100 µM (inactive) | 73.1 µM (inactive) | > 100 µM (inactive) | 54.5 µM (inactive) |  | 47.4 µM (inactive) | 72.6 µM (inactive) | 79.1 µM (inactive) | > 100 µM (inactive) | 70 µM (inactive) | 27.7 µM (inactive) | > 10 µM (inactive) | > 100 µM (inactive) | 43.7 µM (inactive)
